This passage reports Ki and EC50 results from patent US9493411B2 (AbbVie Inc., priority 2013, dated 2016).

The structures appear in SMILES notation.

In one test the target is T1, BRD4 (BDI_K57-E168) (Homo sapiens, UniProt O60885).
T1 construct: BD1: amino acids K57-E168; made in house
The test is described as follows: TR-FRET bromodomain binding assay, BRD4 first bromodomain. The conditions noted are these: His-tagged BD1, Alexa647-labeled probe 100 nM; Ki calculated from IC50. A digest of the protocol: (§1)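 Affinity for each isolated His-tagged domain was measured as competition with a fluorescent Alexa647 BET-inhibitor probe in a TR-FRET format at pH 6.0, 1 h room temperature incubation. Ki values were calculated from fitted IC50s, probe Kd and probe level (100 nM BDI, 30 nM BDII).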

The next test addresses T2, BRD4 (BDII_E352-M457) (Homo sapiens, UniProt O60885).
T2 construct: made in house
Kind of test: TR-FRET bromodomain binding assay, BRD4 second bromodomain. The conditions noted are these: His-tagged BD2, Alexa647-labeled probe 30 nM; Ki calculated from IC50. In short, it runs like this:
as §1

Test [1] has as its system breast cancer cell line MX-1. The test is described as follows: MX-1 cell line proliferation assay. The class given is cell-based. The conditions noted are these: Homo sapiens, MX1, 72 h, MX-1 cells, 3-day proliferation assay, Cell Titer Glo; read-out: Cellular proliferation: EC50. The procedure: The impact of compounds of the Examples on cancer cell proliferation was determined using the breast cancer cell line MX-1 (ATCC) in a 3-day proliferation assay and the data are reported in Table 1. MX-1 cells were maintained in RPMI 1640 medium (Sigma) supplemented with 10% FBS at 37° C. and an atmosphere of 5% CO2. For compound testing, MX-1 cells were plated in 96-well black bottom plates at a density of 5000 cells/well in 90 μL of culture media and incubated at 37° overnight to allow cell adhesion and spreading. Compound dilution series were prepared in DMSO via a 3-fold serial dilution from 3 mM to 0.1 μM. The DMSO dilution series were then diluted 1:100 in phosphate buffered saline, and 10 μL of the resulted solution were added to the appropriate wells of the MX-1 cell plate. The final compound concentrations in the wells were 3, 1, 0.3, 0.1, 0.03, 0.01, 0.003, 0.001, 0.0003 and 0.0001 μM.
Luminescence readings from the Cell Titer Glo assay were normalized to the DMSO treated cells and analyzed using the GraphPad Prism software with sigmoidal curve fitting to obtain EC50s. The minimum significant ratio (MSR) was determined to evaluate assay reproducibility (Eastwood et al., (2006) J Biomol Screen, 11: 253-261).

For the compound `Cc1[nH]c(-c2ccccc2NC2CCCCC2F)cc1C(N)=O` (stereo not drawn) [Example 75, 5-{2-[(2-fluorocyclohexyl)amino]phenyl}-2-methyl-1H-pyrrole-3-carboxamide], the Ki on BRD4 (BDI_K57-E168) was 37.6 nM; at BRD4 (BDII_E352-M457), 225 nM. Moreover, the EC50 in test [1] was found to be 433 nM.

For the compound `Cc1[nH]c(-c2ccccc2NC(=O)Cc2ccccc2)cc1C(N)=O` [Example 76, 2-methyl-5-{2-[(phenylacetyl)amino]phenyl}-1H-pyrrole-3-carboxamide], the Ki at BRD4 (BDI_K57-E168) was 4500 nM; on BRD4 (BDII_E352-M457), 2980 nM. Further, the EC50 in test [1] amounted to 13400 nM.

With `Cc1[nH]c(-c2ccccc2NS(=O)(=O)Cc2ccccc2)cc1C(N)=O` [Example 83, 5-{2-[(benzylsulfonyl)amino]phenyl}-2-methyl-1H-pyrrole-3-carboxamide], the Ki at BRD4 (BDI_K57-E168) was 237 nM; on BRD4 (BDII_E352-M457) it was 653 nM. The EC50 in test [1] is > 3000 nM.

As to `Cc1[nH]c(-c2ccccc2NS(=O)(=O)Cc2ccc(Cl)cc2)cc1C(N)=O` [Example 85, 5-(2-{[(4-chlorobenzyl)sulfonyl]amino}phenyl)-2-methyl-1H-pyrrole-3-carboxamide], the Ki on BRD4 (BDI_K57-E168) is 1850 nM; at BRD4 (BDII_E352-M457), 13200 nM. In addition, the EC50 in test [1] was > 3000 nM.

With `Cc1[nH]c(-c2ccccc2NS(=O)(=O)C2CCCC2)cc1C(N)=O` [Example 87, 5-{2-[(cyclopentylsulfonyl)amino]phenyl}-2-methyl-1H-pyrrole-3-carboxamide], the values for the Ki at BRD4 (BDI_K57-E168) and at BRD4 (BDII_E352-M457) were 366 nM and 465 nM, respectively. In test [1], the EC50 is > 3000 nM.

As for `Cc1ccc(-c2cc(C(N)=O)c(C)[nH]2)c(C)c1` [Example 90, 5-(2,4-dimethylphenyl)-2-methyl-1H-pyrrole-3-carboxamide], the Ki at BRD4 (BDI_K57-E168) is 2500 nM; at BRD4 (BDII_E352-M457), 5180 nM. Moreover, in test [1], the EC50 is 6300 nM.

As to `Cc1[nH]c(-c2ccc(-c3ccc(CN4CCN(C)CC4)cc3)cc2)cc1C(N)=O` [Example 97, 2-methyl-5-{4′-[(4-methylpiperazin-1-yl)methyl]biphenyl-4-yl}-1H-pyrrole-3-carboxamide], the Ki on BRD4 (BDI_K57-E168) was 1410 nM; on BRD4 (BDII_E352-M457), 1870 nM. For the same compound, the EC50 in test [1] is 15300 nM.

As to `COC/C=C/c1ccc(-c2cc(C(N)=O)c(C)[nH]2)cc1` [Example 107, 5-{4-[(1E)-3-methoxyprop-1-en-1-yl]phenyl}-2-methyl-1H-pyrrole-3-carboxamide], the Ki at BRD4 (BDI_K57-E168) is 4020 nM; at BRD4 (BDII_E352-M457) it was 1980 nM. The EC50 in test [1] came out at 8600 nM.

On to `Cc1[nH]c(-c2ccccc2Oc2ccccc2F)cc1C(N)=O` [Example 117, 5-[2-(2-fluorophenoxy)phenyl]-2-methyl-1H-pyrrole-3-carboxamide], for which the Ki is 391 nM on BRD4 (BDI_K57-E168) and 725 nM at BRD4 (BDII_E352-M457). In addition, the EC50 in test [1] was found to be 1350 nM.

On to `Cc1[nH]c(-c2ccccc2Oc2ccc3cc[nH]c3c2)cc1C(N)=O` [Example 118, 5-[2-(1H-indol-6-yloxy)phenyl]-2-methyl-1H-pyrrole-3-carboxamide], for which the inhibition constant Ki on BRD4 (BDI_K57-E168) is 529 nM; at BRD4 (BDII_E352-M457), 1730 nM. For the same compound, the EC50 in test [1] amounted to 1320 nM.

As for `Cc1[nH]c(-c2ccccc2Oc2ccc(N)cc2)cc1C(N)=O` [Example 119, 5-[2-(4-aminophenoxy)phenyl]-2-methyl-1H-pyrrole-3-carboxamide], the Ki was 249 nM on BRD4 (BDI_K57-E168) and 1100 nM on BRD4 (BDII_E352-M457). The EC50 in test [1] stood at 998 nM.

On to `Cc1[nH]c(-c2ccccc2Oc2ccc(Cc3ccccc3)cc2)cc1C(N)=O` [Example 121, 5-[2-(4-benzylphenoxy)phenyl]-2-methyl-1H-pyrrole-3-carboxamide], for which the Ki was 776 nM on BRD4 (BDI_K57-E168) and 10200 nM at BRD4 (BDII_E352-M457). The EC50 in test [1] was > 10000 nM.

Consider `Cc1[nH]c(-c2ccccc2Oc2cccc3cnccc23)cc1C(N)=O` [Example 125, 5-[2-(isoquinolin-5-yloxy)phenyl]-2-methyl-1H-pyrrole-3-carboxamide], for which the results for the Ki at BRD4 (BDI_K57-E168) and at BRD4 (BDII_E352-M457) were 180 nM and 192 nM, respectively. For the same compound, in test [1], the EC50 was found to be 1600 nM.

`Cc1[nH]c(-c2ccccc2Oc2cccnc2)cc1C(N)=O` [Example 126, 2-methyl-5-[2-(pyridin-3-yloxy)phenyl]-1H-pyrrole-3-carboxamide]: the Ki is 83.4 nM on BRD4 (BDI_K57-E168) and 1140 nM on BRD4 (BDII_E352-M457). For the same compound, the EC50 in test [1] was determined as 1300 nM.

In the case of `Cc1[nH]c(-c2ccccc2Oc2cccc(C#N)c2)cc1C(N)=O` [Example 127, 5-[2-(3-cyanophenoxy)phenyl]-2-methyl-1H-pyrrole-3-carboxamide], the Ki was 233 nM on BRD4 (BDI_K57-E168) and 1040 nM on BRD4 (BDII_E352-M457). Further, the EC50 in test [1] was 2000 nM.

Regarding `Cc1[nH]c(-c2ccccc2Oc2cccc3ncccc23)cc1C(N)=O` [Example 128, 2-methyl-5-[2-(quinolin-5-yloxy)phenyl]-1H-pyrrole-3-carboxamide], the Ki at BRD4 (BDI_K57-E168) is 27.3 nM; at BRD4 (BDII_E352-M457) it was 318 nM. Further, the EC50 in test [1] was 400 nM.

Consider `Cc1[nH]c(-c2ccccc2Oc2ccc(Cl)cc2F)cc1C(N)=O` [Example 129, 5-[2-(4-chloro-2-fluorophenoxy)phenyl]-2-methyl-1H-pyrrole-3-carboxamide], for which the Ki is 281 nM at BRD4 (BDI_K57-E168) and 2240 nM at BRD4 (BDII_E352-M457). Further, the EC50 in test [1] came to 2250 nM.

Consider `Cc1[nH]c(-c2ccccc2Oc2ccc3[nH]ccc3c2)cc1C(N)=O` [Example 130, 5-[2-(1H-indol-5-yloxy)phenyl]-2-methyl-1H-pyrrole-3-carboxamide], for which the Ki on BRD4 (BDI_K57-E168) was 471 nM; at BRD4 (BDII_E352-M457) it was 1220 nM. Besides, in test [1], the EC50 is 1770 nM.

Regarding `COC(=O)CCc1ccccc1Oc1ccccc1-c1cc(C(N)=O)c(C)[nH]1` [Example 133, methyl 3-{2-[2-(4-carbamoyl-5-methyl-1H-pyrrol-2-yl)phenoxy]phenyl}propanoate], the figures for the Ki on BRD4 (BDI_K57-E168) and on BRD4 (BDII_E352-M457) were 310 nM and 576 nM, respectively. In addition, the EC50 in test [1] was determined as 1830 nM.

Consider `Cc1cccc(Oc2ccccc2-c2cc(C(N)=O)c(C)[nH]2)c1` [Example 134, 2-methyl-5-[2-(3-methylphenoxy)phenyl]-1H-pyrrole-3-carboxamide], for which the inhibition constant (Ki) was 493 nM on BRD4 (BDI_K57-E168) and 1170 nM at BRD4 (BDII_E352-M457). For the same compound, the EC50 in test [1] was > 10000 nM.

For the compound `Cc1[nH]c(-c2ccccc2Oc2ccc(-n3ccnc3)cc2)cc1C(N)=O` [Example 135, 5-{2-[4-(1H-imidazol-1-yl)phenoxy]phenyl}-2-methyl-1H-pyrrole-3-carboxamide], the Ki on BRD4 (BDI_K57-E168) is 355 nM; at BRD4 (BDII_E352-M457), 1860 nM. Further, in test [1], the EC50 was > 10000 nM.

Turning to `COc1ccc(Oc2ccccc2-c2cc(C(N)=O)c(C)[nH]2)cc1` [Example 137, 5-[2-(4-methoxyphenoxy)phenyl]-2-methyl-1H-pyrrole-3-carboxamide], the Ki was 218 nM at BRD4 (BDI_K57-E168) and 1020 nM on BRD4 (BDII_E352-M457). In test [1], the EC50 was 4880 nM.

Consider `Cc1[nH]c(-c2ccccc2Oc2ccc3ccccc3c2)cc1C(N)=O` [Example 139, 2-methyl-5-[2-(naphthalen-2-yloxy)phenyl]-1H-pyrrole-3-carboxamide], for which the results for the Ki on BRD4 (BDI_K57-E168) and at BRD4 (BDII_E352-M457) were 728 nM and 1190 nM, respectively. Further, the EC50 in test [1] came out at 8560 nM.

In the case of `Cc1[nH]c(-c2ccccc2Oc2ccc(F)cc2)cc1C(N)=O` [Example 141, 5-[2-(4-fluorophenoxy)phenyl]-2-methyl-1H-pyrrole-3-carboxamide], the inhibition constant (Ki) at BRD4 (BDI_K57-E168) is 123 nM; at BRD4 (BDII_E352-M457), 1600 nM. In addition, the EC50 in test [1] was 2420 nM.

With `Cc1[nH]c(-c2ccccc2Oc2cccc(Cl)c2)cc1C(N)=O` [Example 142, 5-[2-(3-chlorophenoxy)phenyl]-2-methyl-1H-pyrrole-3-carboxamide], the Ki was 357 nM on BRD4 (BDI_K57-E168) and 775 nM at BRD4 (BDII_E352-M457). The EC50 in test [1] was 2130 nM.

Turning to `Cc1[nH]c(-c2ccccc2-n2cnc3ccc(O)cc32)cc1C(N)=O` [Example 145, 5-[2-(6-hydroxy-1H-benzimidazol-1-yl)phenyl]-2-methyl-1H-pyrrole-3-carboxamide], the Ki was 1190 nM on BRD4 (BDI_K57-E168) and 3920 nM on BRD4 (BDII_E352-M457). In addition, the EC50 in test [1] is > 10000 nM.

Take `Cc1[nH]c(-c2ccccc2-n2cnc3cc(O)ccc32)cc1C(N)=O` [Example 146, 5-[2-(5-hydroxy-1H-benzimidazol-1-yl)phenyl]-2-methyl-1H-pyrrole-3-carboxamide]: the results for the Ki on BRD4 (BDI_K57-E168) and on BRD4 (BDII_E352-M457) were 74.9 nM and 326 nM, respectively. Further, the EC50 in test [1] came out at 1610 nM.

As to `Cc1[nH]c(-c2ccccc2Cc2ccccc2)cc1C(N)=O` [Example 148, 5-(2-benzylphenyl)-2-methyl-1H-pyrrole-3-carboxamide], the Ki was 355 nM at BRD4 (BDI_K57-E168) and 605 nM on BRD4 (BDII_E352-M457). Also, the EC50 in test [1] was 4320 nM.
